Series [1] can be described thus: Cytotoxicity assay in MT-4 cells. The settings on record: human; uninfected MT-4 cells, 5 days incubation, Cell Titer Glo; read-out: MT4 CC50. The series is classed as cell-based. Summed up: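 Viability read by Cell Titer Glo luminescence after 5 days at 37 °C. MT-4 cells, not infected, in complete RPMI (10% FBS), received compound dilution series. Base cytotoxicity set with […] puromycin.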
(In general: ATP-based viability assays read luminescence as a measure of living cells.)

For another series, the system named is HIV-1 (IIIB). Put plainly: Antiviral assay in MT-4 cells. The series is classed as cell-based. Summed up: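 Read-out: CellTiter-Glo luminescence after 5 days at 37 °C, reflecting survival of MT-4 cells infected with HIV-1 IIIB (1:250 fresh stock dilution) versus mock-infected. Compounds serially diluted into RPMI with 10% FBS; AZT at 5 μM served as positive control.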

[2] abbreviates: Human immunodeficiency virus 1, MT4, 120 h, HIV-1 IIIB in MT-4 cells, 5 days incubation, Cell Titer Glo, read-out: MT4 EC50.

Molecules are shown by their SMILES. Where two headings read alike, the source gives them in different places.

In general, CC50 refers to the concentration that lowers cell viability or growth by half. Usually EC50 stands for the concentration giving half of the maximal effect. Turning to `CCCCOC(=O)OCOc1c2n(cc(C(=O)NCc3ccc(F)cc3F)c1=O)[C@@H]1CN(C2=O)[C@@H](C)CC[C@]12CC(C)=NO2` [Example 176, butyl ((((3′S,5S,7′R)-10′-((2,4-difluorobenzyl)carbamoyl)-3,3′-dimethyl-1′,11′-dioxo-1′,4′,5′,11′-tetrahydro-3′H,4H,7′H-spiro[isoxazole-5,6′-[2,7]methanopyrido[1,2-a][1,4]diazonin]-12′-yl)oxy)methyl) carbonate], the CC50 at 5 days in series [1] was determined as 23000 nM. The 50% effective concentration (EC50) with HIV-1 (IIIB) (setting [2]) came out at 0.284 nM.
The corresponding values for `CCCCOC(=O)OCOc1c2n(cc(C(=O)NCc3ccc(F)cc3F)c1=O)[C@@H]1CN(C2=O)[C@@H](C)CC[C@]12CC(OC)=NO2` [Example 177, butyl ((((3′S,5S,7′R)-10′-((2,4-difluorobenzyl)carbamoyl)-3-methoxy-3′-methyl-1′,11′-dioxo-1′,4′,5′,11′-tetrahydro-3′H,4H,7′H-spiro[isoxazole-5,6′-[2,7]methanopyrido[1,2-a][1,4]diazonin]-12′-yl)oxy)methyl) carbonate] are 23900 nM and 0.366 nM.
On to `CCCCCCCCOC(=O)OCOc1c2n(cc(C(=O)NCc3ccc(F)cc3F)c1=O)[C@@H]1CN(C2=O)[C@@H](C)CC[C@]12CC(C)=NO2` [Example 178, (((3′S,5S,7′R)-10′-((2,4-difluorobenzyl)carbamoyl)-3,3′-dimethyl-1′,11′-dioxo-1′,4′,5′,11′-tetrahydro-3′H,4H,7′H-spiro[isoxazole-5,6′-[2,7]methanopyrido[1,2-a][1,4]diazonin]-12′-yl)oxy)methyl octyl carbonate], for which the CC50 at 5 days in series [1] turned out to be 15800 nM. Also, in the series on HIV-1 (IIIB) (Human immunodeficiency virus 1, IIIB, MT4, 120 h, read-out: MT4 EC50 (nM)), the 50% effective concentration (EC50) worked out at 2.64 nM.
For the compound `CCCCCOC(=O)OCOc1c2n(cc(C(=O)NCc3ccc(F)cc3F)c1=O)[C@@H]1CN(C2=O)[C@@H](C)CC[C@]12CC(C)=NO2` [Example 179, (((3′S,5S,7′R)-10′-((2,4-difluorobenzyl)carbamoyl)-3,3′-dimethyl-1′,11′-dioxo-1′,4′,5′,11′-tetrahydro-3′H,4H,7′H-spiro[isoxazole-5,6′-[2,7]methanopyrido[1,2-a][1,4]diazonin]-12′-yl)oxy)methyl pentyl carbonate], in series [1], the 50% cytotoxic concentration (CC50) at 5 days was ≥ 50000 nM. In the series with HIV-1 (IIIB) (setting [2]), the 50% effective concentration (EC50) was 0.527 nM.
The corresponding values for `CCCCCOC(=O)OCOc1c2n(cc(C(=O)NCc3ccc(F)cc3F)c1=O)[C@@H]1CN(C2=O)[C@@H](C)CC[C@]12CC(OC)=NO2` [Example 180, (((3′S,5S,7′R)-10′-((2,4-difluorobenzyl)carbamoyl)-3-methoxy-3′-methyl-1′,11′-dioxo-1′,4′,5′,11′-tetrahydro-3′H,4H,7′H-spiro[isoxazole-5,6′-[2,7]methanopyrido[1,2-a][1,4]diazonin]-12′-yl)oxy)methyl pentyl carbonate] are ≥ 50000 nM and 0.274 nM.
For `CCCCCCOC(=O)OCOc1c2n(cc(C(=O)NCc3ccc(F)cc3F)c1=O)[C@@H]1CN(C2=O)[C@@H](C)CC[C@]12CC(C)=NO2` [Example 181, (((3′S,5S,7′R)-10′-((2,4-difluorobenzyl)carbamoyl)-3,3′-dimethyl-1′,11′-dioxo-1′,4′,5′,11′-tetrahydro-3′H,4H,7′H-spiro[isoxazole-5,6′-[2,7]methanopyrido[1,2-a][1,4]diazonin]-12′-yl)oxy)methyl hexyl carbonate], in that order: 14700 nM and 0.262 nM.
With `CCCCCCOC(=O)OCOc1c2n(cc(C(=O)NCc3ccc(F)cc3F)c1=O)[C@@H]1CN(C2=O)[C@@H](C)CC[C@]12CC(OC)=NO2` [Example 182, (((3′S,5S,7′R)-10′-((2,4-difluorobenzyl)carbamoyl)-3-methoxy-3′-methyl-1′,11′-dioxo-1′,4′,5′,11′-tetrahydro-3′H,4H,7′H-spiro[isoxazole-5,6′-[2,7]methanopyrido[1,2-a][1,4]diazonin]-12′-yl)oxy)methyl hexyl carbonate], in series [1], the CC50 at 5 days stood at 47900 nM. The EC50 in the series on HIV-1 (IIIB) (setting [2]) came out at 0.29 nM.
For `CCCCCCCOC(=O)OCOc1c2n(cc(C(=O)NCc3ccc(F)cc3F)c1=O)[C@@H]1CN(C2=O)[C@@H](C)CC[C@]12CC(C)=NO2` [Example 183, (((3′S,5S,7′R)-10′-((2,4-difluorobenzyl)carbamoyl)-3,3′-dimethyl-1′,11′-dioxo-1′,4′,5′,11′-tetrahydro-3′H,4H,7′H-spiro[isoxazole-5,6′-[2,7]methanopyrido[1,2-a][1,4]diazonin]-12′-yl)oxy)methyl heptyl carbonate], in that order: 11400 nM and 0.358 nM.
The corresponding values for `CCCCCCCOC(=O)OCOc1c2n(cc(C(=O)NCc3ccc(F)cc3F)c1=O)[C@@H]1CN(C2=O)[C@@H](C)CC[C@]12CC(OC)=NO2` [Example 184, (((3′S,5S,7′R)-10′-((2,4-difluorobenzyl)carbamoyl)-3-methoxy-3′-methyl-1′,11′-dioxo-1′,4′,5′,11′-tetrahydro-3′H,4H,7′H-spiro[isoxazole-5,6′-[2,7]methanopyrido[1,2-a][1,4]diazonin]-12′-yl)oxy)methyl heptyl carbonate] are 9980 nM and 0.441 nM.
For `CCCCCCCCOC(=O)OCOc1c2n(cc(C(=O)NCc3ccc(F)cc3F)c1=O)[C@@H]1CN(C2=O)[C@@H](C)CC[C@]12CC(OC)=NO2` [Example 185, (((3′S,5S,7′R)-10′-((2,4-difluorobenzyl)carbamoyl)-3-methoxy-3′-methyl-1′,11′-dioxo-1′,4′,5′,11′-tetrahydro-3′H,4H,7′H-spiro[isoxazole-5,6′-[2,7]methanopyrido[1,2-a][1,4]diazonin]-12′-yl)oxy)methyl octyl carbonate], the CC50 at 5 days in series [1] was ≥ 50000 nM. In addition, the EC50 with HIV-1 (IIIB) (setting [2]) came to 5.14 nM.
Turning to `CCCCCCCCCOC(=O)OCOc1c2n(cc(C(=O)NCc3ccc(F)cc3F)c1=O)[C@@H]1CN(C2=O)[C@@H](C)CC[C@]12CC(C)=NO2` [Example 186, (((3′S,5S,7′R)-10′-((2,4-difluorobenzyl)carbamoyl)-3,3′-dimethyl-1′,11′-dioxo-1′,4′,5′,11′-tetrahydro-3′H,4H,7′H-spiro[isoxazole-5,6′-[2,7]methanopyrido[1,2-a][1,4]diazonin]-12′-yl)oxy)methyl nonyl carbonate], the CC50 at 5 days in series [1] is ≥ 50000 nM. Besides, the EC50 in the series on HIV-1 (IIIB) (setting [2]) is 2.24 nM.
With `CCCCCCCCCOC(=O)OCOc1c2n(cc(C(=O)NCc3ccc(F)cc3F)c1=O)[C@@H]1CN(C2=O)[C@@H](C)CC[C@]12CC(OC)=NO2` [Example 187, (((3′S,5S,7′R)-10′-((2,4-difluorobenzyl)carbamoyl)-3-methoxy-3′-methyl-1′,11′-dioxo-1′,4′,5′,11′-tetrahydro-3′H,4H,7′H-spiro[isoxazole-5,6′-[2,7]methanopyrido[1,2-a][1,4]diazonin]-12′-yl)oxy)methyl nonyl carbonate], in series [1], the 50% cytotoxic concentration (CC50) at 5 days was 43900 nM. Besides, the concentration for a half-maximal effect (EC50) in the series with HIV-1 (IIIB) (setting [2]) is 3.25 nM.
Regarding `CCCCCCCCCCOC(=O)OCOc1c2n(cc(C(=O)NCc3ccc(F)cc3F)c1=O)[C@@H]1CN(C2=O)[C@@H](C)CC[C@]12CC(C)=NO2` [Example 188, decyl ((((3′S,5S,7′R)-10′-((2,4-difluorobenzyl)carbamoyl)-3,3′-dimethyl-1′,11′-dioxo-1′,4′,5′,11′-tetrahydro-3′H,4H,7′H-spiro[isoxazole-5,6′-[2,7]methanopyrido[1,2-a][1,4]diazonin]-12′-yl)oxy)methyl) carbonate], in series [1], the CC50 at 5 days is 38500 nM. In addition, the concentration for a half-maximal effect (EC50) with HIV-1 (IIIB) (setting [2]) was 1.55 nM.
